Reference: the NIST ThermoML archive (doi:10.1016/j.jct.2005.12.005)
± gives the expanded uncertainty stated by the source.

Legend:
[1] = xn = mol fraction of the nth substance listed; details: 101 kPa, Liquid; for speed of sound: Sing-around technique in a fixed-path interferometer
[2] = refractive index (Na D-line) (dimensionless); xn = mol fraction of the nth substance listed; details: 101 kPa, Liquid

CC1CCCCC1 [methylcyclohexane] + Cc1ccc(C)cc1
Details | mass density, 298.15 K [kg/m3] | mass density, 303.15 K [kg/m3] | mass density, 308.15 K [kg/m3] | refractive index, 298.15 K | refractive index, 303.15 K | refractive index, 308.15 K | speed of sound, 298.15 K [m/s] | viscosity, 298.15 K [mPa·s] | viscosity, 303.15 K [mPa·s] | viscosity, 308.15 K [mPa·s]
[1], x1 = 0.0993 | 846.6 ± 0.8 | 842.3 ± 0.9 | 837.9 ± 0.9 | – | – | – | 1315 ± 6 | 0.597 ± 0.009 | 0.566 ± 0.009 | 0.536 ± 0.008
[1], x1 = 0.2037 | 836.2 ± 0.8 | 831.8 ± 0.9 | 827.5 ± 0.9 | – | – | – | 1303 ± 5 | 0.59 ± 0.009 | 0.557 ± 0.009 | 0.523 ± 0.008
[1], x1 = 0.3028 | 826.4 ± 0.8 | 822.1 ± 0.9 | 817.8 ± 0.9 | – | – | – | 1293 ± 5 | 0.587 ± 0.009 | 0.553 ± 0.008 | 0.52 ± 0.008
[1], x1 = 0.4047 | 816.7 ± 0.8 | 812.3 ± 0.9 | 808 ± 0.9 | – | – | – | 1282 ± 5 | 0.586 ± 0.009 | 0.553 ± 0.008 | 0.52 ± 0.008
[1], x1 = 0.5382 | 804.2 ± 0.8 | 799.9 ± 0.9 | 795.5 ± 0.9 | – | – | – | 1268 ± 5 | 0.593 ± 0.009 | 0.559 ± 0.008 | 0.525 ± 0.008
[1], x1 = 0.6035 | 798.3 ± 0.8 | 794 ± 0.9 | 789.6 ± 0.9 | – | – | – | 1261 ± 5 | 0.597 ± 0.009 | 0.562 ± 0.008 | 0.528 ± 0.008
[1], x1 = 0.703 | 789.5 ± 0.8 | 785.1 ± 0.9 | 780.8 ± 0.9 | – | – | – | 1250 ± 5 | 0.608 ± 0.009 | 0.573 ± 0.008 | 0.537 ± 0.008
[1], x1 = 0.8037 | 780.8 ± 0.8 | 776.5 ± 0.9 | 772.2 ± 0.9 | – | – | – | 1239 ± 5 | 0.625 ± 0.009 | 0.588 ± 0.009 | 0.55 ± 0.008
[1], x1 = 0.8981 | 773 ± 0.9 | 768.7 ± 0.9 | 764.4 ± 0.9 | – | – | – | 1228 ± 5 | 0.646 ± 0.009 | 0.607 ± 0.009 | 0.569 ± 0.008
[1], x1 = 1 | 765 ± 0.9 | 760.7 ± 0.9 | 756.3 ± 0.9 | – | – | – | 1217 ± 5 | 0.676 ± 0.009 | 0.631 ± 0.009 | 0.59 ± 0.008
[2], x1 = 0.0993 | – | – | – | 1.4848 ± 0.001 | 1.482 ± 0.001 | 1.4793 ± 0.001 | – | – | – | –
[2], x1 = 0.2037 | – | – | – | 1.4767 ± 0.001 | 1.4743 ± 0.001 | 1.4718 ± 0.001 | – | – | – | –
[2], x1 = 0.3028 | – | – | – | 1.469 ± 0.001 | 1.4668 ± 0.001 | 1.4646 ± 0.001 | – | – | – | –
[2], x1 = 0.4047 | – | – | – | 1.4615 ± 0.001 | 1.4594 ± 0.001 | 1.4572 ± 0.001 | – | – | – | –
[2], x1 = 0.5382 | – | – | – | 1.4519 ± 0.001 | 1.4498 ± 0.001 | 1.4476 ± 0.001 | – | – | – | –
[2], x1 = 0.6035 | – | – | – | 1.4473 ± 0.001 | 1.4451 ± 0.001 | 1.443 ± 0.001 | – | – | – | –
[2], x1 = 0.703 | – | – | – | 1.4405 ± 0.001 | 1.4384 ± 0.001 | 1.4362 ± 0.001 | – | – | – | –
[2], x1 = 0.8037 | – | – | – | 1.4338 ± 0.001 | 1.4314 ± 0.001 | 1.429 ± 0.001 | – | – | – | –
[2], x1 = 0.8981 | – | – | – | 1.4279 ± 0.001 | 1.4253 ± 0.001 | 1.4228 ± 0.001 | – | – | – | –
[2], x1 = 1 | – | – | – | 1.4217 ± 0.001 | 1.4192 ± 0.001 | 1.4163 ± 0.001 | – | – | – | –
